Key:
[1] = AUClast in CD1 mouse at 200 mg/kg, po administered as single dose by HPLC-MS/MS analysis; assay type: ADME, organism-based; set-up: dose 200 mg/kg, time 0 - last, route oral; conditions: in vivo
Cytochrome P450 1A2 = biological target: T1, Cytochrome P450 1A2 (Homo sapiens, UniProt P05177); assay: Inhibition of recombinant human CYP1A2 expressed in insect cell microsomes using Luciferin-ME as substrate preincubated for 10 mins followed by NADPH addition measured after 30 mins by luminometric method; assay type: ADME; conditions: recombinant enzyme, 0.5 h
T1 sequence (P05177 whole entry): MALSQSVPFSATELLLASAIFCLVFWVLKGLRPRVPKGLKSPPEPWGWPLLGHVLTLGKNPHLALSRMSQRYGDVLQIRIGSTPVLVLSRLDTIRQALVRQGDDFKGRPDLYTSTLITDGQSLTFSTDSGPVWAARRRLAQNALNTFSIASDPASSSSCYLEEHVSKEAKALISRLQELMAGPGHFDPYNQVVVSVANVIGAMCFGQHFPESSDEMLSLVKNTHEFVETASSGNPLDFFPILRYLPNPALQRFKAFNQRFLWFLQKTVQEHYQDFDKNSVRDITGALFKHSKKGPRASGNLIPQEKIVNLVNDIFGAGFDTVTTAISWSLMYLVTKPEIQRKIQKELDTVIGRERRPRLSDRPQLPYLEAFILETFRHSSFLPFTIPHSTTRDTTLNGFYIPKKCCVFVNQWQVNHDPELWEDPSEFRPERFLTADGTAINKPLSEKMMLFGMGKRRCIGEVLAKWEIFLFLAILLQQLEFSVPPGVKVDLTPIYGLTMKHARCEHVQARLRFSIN

CYP2D6 [2] = biological target: T2, CYP2D6 (Homo sapiens, UniProt P10635); assay: Inhibition of recombinant human CYP2D6 expressed in insect cell microsomes at 5 uM using Luciferin-ME EGE as substrate preincubated for 30 mins followed by NADPH addition measured after 45 mins by luminometric method; assay type: ADME; conditions: probe Luciferin-ME EGE
T2 sequence (P10635 whole entry): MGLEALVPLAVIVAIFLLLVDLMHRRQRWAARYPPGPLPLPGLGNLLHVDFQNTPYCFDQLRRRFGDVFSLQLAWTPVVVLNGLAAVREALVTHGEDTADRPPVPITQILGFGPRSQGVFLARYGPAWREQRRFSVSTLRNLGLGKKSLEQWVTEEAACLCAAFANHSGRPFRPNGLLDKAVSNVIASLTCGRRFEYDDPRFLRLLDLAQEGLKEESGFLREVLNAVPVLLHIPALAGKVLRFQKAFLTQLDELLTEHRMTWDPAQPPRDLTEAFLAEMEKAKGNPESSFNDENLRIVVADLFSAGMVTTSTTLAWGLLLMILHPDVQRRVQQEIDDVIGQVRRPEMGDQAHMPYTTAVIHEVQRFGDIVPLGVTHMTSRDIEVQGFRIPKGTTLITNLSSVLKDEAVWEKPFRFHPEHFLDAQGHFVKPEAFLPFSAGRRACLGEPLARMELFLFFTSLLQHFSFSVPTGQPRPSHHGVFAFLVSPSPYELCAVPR

CYP1A2 [3] = biological target: T3, CYP1A2 (Homo sapiens, UniProt P05177); assay: Inhibition of recombinant human CYP1A2 expressed in insect cell microsomes at 5 uM using Luciferin-ME as substrate preincubated for 10 mins followed by NADPH addition measured after 30 mins by luminometric method; assay type: ADME; conditions: probe Luciferin-ME
T3 sequence (P05177 whole entry): T1 sequence (P05177 whole entry)

in vitro [4] = conditions: human, Caco-2
Description: Apparent permeability of the compound from apical to basolateral side in human Caco2 cells after 120 mins by LC-MS/MS analysis

[5] = Apparent terminal volume of distribution in CD1 mouse at 200 mg/kg, po administered as single dose by HPLC-MS/MS analysis; assay type: ADME, organism-based; conditions: in vivo, read-out: Vz/F
CYP1A2 [6] = biological target: T3, CYP1A2; assay: Inhibition of recombinant human CYP1A2 expressed in insect cell microsomes at 1 uM using Luciferin-ME as substrate preincubated for 10 mins followed by NADPH addition measured after 30 mins by luminometric method; assay type: ADME; conditions: probe Luciferin-ME
in vitro [7] = conditions: human, Caco-2; remark: listed apart in the source
Description: Efflux ratio of apparent permeability from basolateral to apical over apical to basolateral side in human Caco2 cells after 120 mins by LC-MS/MS analysis

CYP2C9 [8] = biological target: T4, CYP2C9 (Homo sapiens, UniProt P11712); assay: Inhibition of recombinant human CYP2C9 expressed in insect cell microsomes at 1 uM using Luciferin-H as substrate preincubated for 30 mins followed by NADPH addition measured after 30 mins by luminometric method; assay type: ADME; conditions: probe Luciferin-H
T4 sequence (P11712 whole entry): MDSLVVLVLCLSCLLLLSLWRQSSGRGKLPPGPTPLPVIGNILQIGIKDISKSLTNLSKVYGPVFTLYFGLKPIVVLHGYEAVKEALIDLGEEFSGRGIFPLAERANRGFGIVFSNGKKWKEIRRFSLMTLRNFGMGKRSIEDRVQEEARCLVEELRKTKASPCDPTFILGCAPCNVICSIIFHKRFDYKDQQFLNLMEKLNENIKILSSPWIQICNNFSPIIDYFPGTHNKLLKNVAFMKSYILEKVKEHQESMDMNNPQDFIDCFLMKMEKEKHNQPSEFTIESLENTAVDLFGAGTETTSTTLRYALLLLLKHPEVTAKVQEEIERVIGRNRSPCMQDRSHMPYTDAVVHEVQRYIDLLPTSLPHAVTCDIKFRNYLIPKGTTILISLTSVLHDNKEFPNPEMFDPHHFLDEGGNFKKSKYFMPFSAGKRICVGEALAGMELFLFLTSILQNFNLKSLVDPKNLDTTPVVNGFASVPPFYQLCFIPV

CYP2D6 [9] = biological target: T2, CYP2D6; assay: Inhibition of recombinant human CYP2D6 expressed in insect cell microsomes at 1 uM using Luciferin-ME EGE as substrate preincubated for 30 mins followed by NADPH addition measured after 45 mins by luminometric method; assay type: ADME; conditions: probe Luciferin-ME EGE
[10] = Inhibition of hedgehog signaling pathway in mouse Light2 cells stimulated with 100 nM SAG after 30 hrs by Gli-firefly luciferase reporter gene assay
Mus musculus [11] = species on record: Mus musculus; assay: as above
in vitro [12] = conditions: human, Caco-2; remark: listed apart in the source
Description: Apparent permeability of the compound from basolateral to apical side in human Caco2 cells after 120 mins by LC-MS/MS analysis

Cytochrome P450 3A4 = Cytochrome P450 3A4 (Homo sapiens, UniProt P08684); assay: Inhibition of recombinant human CYP3A4 expressed in insect cell microsomes using Luciferin-IPA as substrate preincubated for 10 mins followed by NADPH addition measured after 10 mins by luminometric method; assay type: ADME; conditions: recombinant enzyme
Sequence of Cytochrome P450 3A4 (P08684 whole entry): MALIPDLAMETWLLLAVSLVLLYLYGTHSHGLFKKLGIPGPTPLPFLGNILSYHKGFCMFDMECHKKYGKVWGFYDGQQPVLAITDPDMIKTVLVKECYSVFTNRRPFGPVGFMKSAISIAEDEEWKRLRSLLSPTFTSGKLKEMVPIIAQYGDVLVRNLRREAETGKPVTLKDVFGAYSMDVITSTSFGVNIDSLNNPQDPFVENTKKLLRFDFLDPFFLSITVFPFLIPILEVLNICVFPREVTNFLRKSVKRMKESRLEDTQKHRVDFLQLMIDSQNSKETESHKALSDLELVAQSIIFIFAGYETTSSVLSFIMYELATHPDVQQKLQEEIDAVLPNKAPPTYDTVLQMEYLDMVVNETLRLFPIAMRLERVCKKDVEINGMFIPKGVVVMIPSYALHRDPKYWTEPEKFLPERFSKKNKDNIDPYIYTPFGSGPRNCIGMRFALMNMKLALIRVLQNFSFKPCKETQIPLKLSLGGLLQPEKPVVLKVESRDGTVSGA

Mus musculus [13] = assay: Clast in CD1 mouse at 200 mg/kg, po administered as single dose by HPLC-MS/MS analysis; assay type: ADME, organism-based; conditions: in vivo
CYP1A2 [14] = biological target: T3, CYP1A2; assay: Inhibition of recombinant human CYP1A2 expressed in insect cell microsomes at 10 uM using Luciferin-ME as substrate preincubated for 10 mins followed by NADPH addition measured after 30 mins by luminometric method; assay type: ADME; conditions: probe Luciferin-ME
CYP2C9 [15] = biological target: T4, CYP2C9; assay: Inhibition of recombinant human CYP2C9 expressed in insect cell microsomes at 5 uM using Luciferin-H as substrate preincubated for 30 mins followed by NADPH addition measured after 30 mins by luminometric method; assay type: ADME; conditions: probe Luciferin-H
CYP2C19 [16] = biological target: T5, CYP2C19 (Homo sapiens, UniProt P33261); assay: Inhibition of recombinant human CYP2C19 expressed in insect cell microsomes at 10 uM using Luciferin-H EGE as substrate preincubated for 20 mins followed by NADPH addition measured after 30 mins by luminometric method; assay type: ADME; conditions: probe Luciferin-H EGE
T5 sequence (P33261 whole entry): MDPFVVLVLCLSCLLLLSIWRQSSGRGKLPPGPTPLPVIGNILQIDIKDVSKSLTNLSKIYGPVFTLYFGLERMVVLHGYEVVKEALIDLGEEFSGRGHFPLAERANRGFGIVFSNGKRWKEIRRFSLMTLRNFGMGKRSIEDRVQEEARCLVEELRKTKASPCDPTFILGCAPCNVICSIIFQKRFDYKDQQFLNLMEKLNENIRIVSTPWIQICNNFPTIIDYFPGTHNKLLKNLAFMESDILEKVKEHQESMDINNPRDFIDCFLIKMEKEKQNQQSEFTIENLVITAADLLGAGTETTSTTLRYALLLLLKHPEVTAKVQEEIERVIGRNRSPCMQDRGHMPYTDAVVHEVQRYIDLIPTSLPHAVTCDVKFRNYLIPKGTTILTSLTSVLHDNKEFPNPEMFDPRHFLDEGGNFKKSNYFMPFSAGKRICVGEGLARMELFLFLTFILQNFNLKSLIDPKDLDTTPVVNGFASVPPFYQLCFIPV

in vitro [17] = conditions: human, Caco-2; remark: listed apart in the source
Description: Apparent permeability of the compound from apical to basolateral side in human Caco2 cells assessed as drug recovery after 120 mins by LC-MS/MS analysis

CYP2C9 [18] = biological target: T4, CYP2C9; assay: Inhibition of recombinant human CYP2C9 expressed in insect cell microsomes at 10 uM using Luciferin-H as substrate preincubated for 30 mins followed by NADPH addition measured after 30 mins by luminometric method; assay type: ADME; conditions: probe Luciferin-H
HT-1080 = assay: Antiproliferative activity against human HT1080 cells after 72 hrs by sulforhodamine-B assay; assay type: functional, cell-based; conditions: for IC50: HT-1080, 72 h
CYP2C19 [19] = biological target: T5, CYP2C19; assay: Inhibition of recombinant human CYP2C19 expressed in insect cell microsomes at 1 uM using Luciferin-H EGE as substrate preincubated for 20 mins followed by NADPH addition measured after 30 mins by luminometric method; assay type: ADME; conditions: probe Luciferin-H EGE
CYP2D6 [20] = biological target: T2, CYP2D6; assay: Inhibition of recombinant human CYP2D6 expressed in insect cell microsomes at 10 uM using Luciferin-ME EGE as substrate preincubated for 30 mins followed by NADPH addition measured after 45 mins by luminometric method; assay type: ADME; conditions: probe Luciferin-ME EGE
[21] = Cmax in CD1 mouse at 200 mg/kg, po administered as single dose by HPLC-MS/MS analysis; assay type: ADME, organism-based; set-up: dose 200 mg/kg, route oral; conditions: in vivo
CYP2C19 [22] = biological target: T5, CYP2C19; assay: Inhibition of recombinant human CYP2C19 expressed in insect cell microsomes at 5 uM using Luciferin-H EGE as substrate preincubated for 20 mins followed by NADPH addition measured after 30 mins by luminometric method; assay type: ADME; conditions: probe Luciferin-H EGE
[23] = AUC (infinity) in CD1 mouse at 200 mg/kg, po administered as single dose by HPLC-MS/MS analysis; assay type: ADME, organism-based; set-up: dose 200 mg/kg, route oral, time infinity; conditions: in vivo
Homo sapiens = species on record: Homo sapiens; assay: Substrate activity at recombinant human P-gp in membrane fraction assessed as increase in ATPase activity at 10 uM by luminescent P-gp-Glo assay relative to control

Compound	AUC(0-t) [1] [µg·h/mL]	inhibition (INH) (Cytochrome P450 1A2)	inhibition at 0.75 h, 5 µM (CYP2D6 [2]) [%]	inhibition at 0.5 h, 5 µM (CYP1A2 [3]) [%]	Papp A→B at 2 h (in vitro [4]) [×10⁻⁶ cm/s]	Vd/F [5] [L/kg]	inhibition at 0.5 h, 1 µM (CYP1A2 [6]) [%]	efflux ratio at 2 h (in vitro [7])	inhibition at 0.5 h, 1 µM (CYP2C9 [8]) [%]	inhibition at 0.75 h, 1 µM (CYP2D6 [9]) [%]	IC50 [10] [nM]	inhibition (Mus musculus [11])	Papp B→A at 2 h (in vitro [12]) [×10⁻⁶ cm/s]	inhibition (INH) (Cytochrome P450 3A4)	Clast (Mus musculus [13]) [ng/mL]	inhibition at 0.5 h, 10 µM (CYP1A2 [14]) [%]	inhibition at 0.5 h, 5 µM (CYP2C9 [15]) [%]	inhibition at 0.5 h, 10 µM (CYP2C19 [16]) [%]	recovery at 2 h (in vitro [17]) [%]	inhibition at 0.5 h, 10 µM (CYP2C9 [18]) [%]	other results
COc1cc(C(=O)NC(=N)Nc2ccc(C)c(NC(=O)c3ccc(CCc4ccccc4)cc3)c2)cc(OC)c1OC.Cl	137	Dose-dependent effect	12	43	0.701	5.28	29	1.05	68	15	20	Dose-dependent effect	0.737	Dose-dependent effect	50.7	40	81	83	41.1	83	Activity (HT-1080): Dose-dependent effect; IC50 (HT-1080): 2000 nM; inhibition at 0.5 h, 1 µM (CYP2C19 [19]): 67%; inhibition at 0.75 h, 10 µM (CYP2D6 [20]): 11%; Cmax [21]: 11000 ng/mL; inhibition at 0.5 h, 5 µM (CYP2C19 [22]): 81%; AUC(0-inf) [23]: 137 µg·h/mL; fold change (FC) (Homo sapiens): 1.4
COc1cc(C(=O)NC(=N)Nc2ccc(C)c(NC(=O)c3ccc(-c4ccccc4)cc3)c2)cc(OC)c1OC.Cl	237	Dose-dependent effect	29	64	0.428	2.96	49	1.52	43	19	70	Dose-dependent effect	0.651	Dose-dependent effect	74.2	64	71	81	16.5	74	Activity (HT-1080): Dose-dependent effect; IC50 (HT-1080): 29000 nM; inhibition at 0.5 h, 1 µM (CYP2C19 [19]): 57%; inhibition at 0.75 h, 10 µM (CYP2D6 [20]): 23%; Cmax [21]: 29600 ng/mL; inhibition at 0.5 h, 5 µM (CYP2C19 [22]): 79%; AUC(0-inf) [23]: 237 µg·h/mL; fold change (FC) (Homo sapiens): 4.8
COc1cc(C(=O)NC(=N)Nc2ccc(C)c(NC(=O)c3ccc(-c4ccc(F)cc4)cc3)c2)cc(OC)c1OC.Cl	223	Dose-dependent effect	25	58	0.366	3.32	46	1.01	63	20	50	Dose-dependent effect	0.37	Dose-dependent effect	90.7	59	76	76	33	79	Activity (HT-1080): Dose-dependent effect; IC50 (HT-1080): 20000 nM; inhibition at 0.5 h, 1 µM (CYP2C19 [19]): 59%; inhibition at 0.75 h, 10 µM (CYP2D6 [20]): 21%; Cmax [21]: 17300 ng/mL; inhibition at 0.5 h, 5 µM (CYP2C19 [22]): 76%; AUC(0-inf) [23]: 224 µg·h/mL; fold change (FC) (Homo sapiens): 2.3

Reference: ChEMBL document CHEMBL4270604, “Hedgehog pathway inhibitors of the acylthiourea and acylguanidine class show antitumor activity on colon cancer in vitro and in vivo” (Eur J Med Chem, 2018)
